ChEMBL document CHEMBL5154770, “Discovery of novel ataxia telangiectasia mutated (ATM) kinase modulators: Computational simulation, biological evaluation and cancer combinational chemotherapy study” (Eur J Med Chem, 2022)
Active and inactive are the calls of the source. The rule behind the calls is not given here.

Columns and labels:
[1] = biological target: T1, Serine-protein kinase ATM (Homo sapiens, UniProt Q13315); test: Competitive inhibition of ATM (unknown origin) measured by ATP-competitive binding assay
T1 sequence (Q13315 whole entry): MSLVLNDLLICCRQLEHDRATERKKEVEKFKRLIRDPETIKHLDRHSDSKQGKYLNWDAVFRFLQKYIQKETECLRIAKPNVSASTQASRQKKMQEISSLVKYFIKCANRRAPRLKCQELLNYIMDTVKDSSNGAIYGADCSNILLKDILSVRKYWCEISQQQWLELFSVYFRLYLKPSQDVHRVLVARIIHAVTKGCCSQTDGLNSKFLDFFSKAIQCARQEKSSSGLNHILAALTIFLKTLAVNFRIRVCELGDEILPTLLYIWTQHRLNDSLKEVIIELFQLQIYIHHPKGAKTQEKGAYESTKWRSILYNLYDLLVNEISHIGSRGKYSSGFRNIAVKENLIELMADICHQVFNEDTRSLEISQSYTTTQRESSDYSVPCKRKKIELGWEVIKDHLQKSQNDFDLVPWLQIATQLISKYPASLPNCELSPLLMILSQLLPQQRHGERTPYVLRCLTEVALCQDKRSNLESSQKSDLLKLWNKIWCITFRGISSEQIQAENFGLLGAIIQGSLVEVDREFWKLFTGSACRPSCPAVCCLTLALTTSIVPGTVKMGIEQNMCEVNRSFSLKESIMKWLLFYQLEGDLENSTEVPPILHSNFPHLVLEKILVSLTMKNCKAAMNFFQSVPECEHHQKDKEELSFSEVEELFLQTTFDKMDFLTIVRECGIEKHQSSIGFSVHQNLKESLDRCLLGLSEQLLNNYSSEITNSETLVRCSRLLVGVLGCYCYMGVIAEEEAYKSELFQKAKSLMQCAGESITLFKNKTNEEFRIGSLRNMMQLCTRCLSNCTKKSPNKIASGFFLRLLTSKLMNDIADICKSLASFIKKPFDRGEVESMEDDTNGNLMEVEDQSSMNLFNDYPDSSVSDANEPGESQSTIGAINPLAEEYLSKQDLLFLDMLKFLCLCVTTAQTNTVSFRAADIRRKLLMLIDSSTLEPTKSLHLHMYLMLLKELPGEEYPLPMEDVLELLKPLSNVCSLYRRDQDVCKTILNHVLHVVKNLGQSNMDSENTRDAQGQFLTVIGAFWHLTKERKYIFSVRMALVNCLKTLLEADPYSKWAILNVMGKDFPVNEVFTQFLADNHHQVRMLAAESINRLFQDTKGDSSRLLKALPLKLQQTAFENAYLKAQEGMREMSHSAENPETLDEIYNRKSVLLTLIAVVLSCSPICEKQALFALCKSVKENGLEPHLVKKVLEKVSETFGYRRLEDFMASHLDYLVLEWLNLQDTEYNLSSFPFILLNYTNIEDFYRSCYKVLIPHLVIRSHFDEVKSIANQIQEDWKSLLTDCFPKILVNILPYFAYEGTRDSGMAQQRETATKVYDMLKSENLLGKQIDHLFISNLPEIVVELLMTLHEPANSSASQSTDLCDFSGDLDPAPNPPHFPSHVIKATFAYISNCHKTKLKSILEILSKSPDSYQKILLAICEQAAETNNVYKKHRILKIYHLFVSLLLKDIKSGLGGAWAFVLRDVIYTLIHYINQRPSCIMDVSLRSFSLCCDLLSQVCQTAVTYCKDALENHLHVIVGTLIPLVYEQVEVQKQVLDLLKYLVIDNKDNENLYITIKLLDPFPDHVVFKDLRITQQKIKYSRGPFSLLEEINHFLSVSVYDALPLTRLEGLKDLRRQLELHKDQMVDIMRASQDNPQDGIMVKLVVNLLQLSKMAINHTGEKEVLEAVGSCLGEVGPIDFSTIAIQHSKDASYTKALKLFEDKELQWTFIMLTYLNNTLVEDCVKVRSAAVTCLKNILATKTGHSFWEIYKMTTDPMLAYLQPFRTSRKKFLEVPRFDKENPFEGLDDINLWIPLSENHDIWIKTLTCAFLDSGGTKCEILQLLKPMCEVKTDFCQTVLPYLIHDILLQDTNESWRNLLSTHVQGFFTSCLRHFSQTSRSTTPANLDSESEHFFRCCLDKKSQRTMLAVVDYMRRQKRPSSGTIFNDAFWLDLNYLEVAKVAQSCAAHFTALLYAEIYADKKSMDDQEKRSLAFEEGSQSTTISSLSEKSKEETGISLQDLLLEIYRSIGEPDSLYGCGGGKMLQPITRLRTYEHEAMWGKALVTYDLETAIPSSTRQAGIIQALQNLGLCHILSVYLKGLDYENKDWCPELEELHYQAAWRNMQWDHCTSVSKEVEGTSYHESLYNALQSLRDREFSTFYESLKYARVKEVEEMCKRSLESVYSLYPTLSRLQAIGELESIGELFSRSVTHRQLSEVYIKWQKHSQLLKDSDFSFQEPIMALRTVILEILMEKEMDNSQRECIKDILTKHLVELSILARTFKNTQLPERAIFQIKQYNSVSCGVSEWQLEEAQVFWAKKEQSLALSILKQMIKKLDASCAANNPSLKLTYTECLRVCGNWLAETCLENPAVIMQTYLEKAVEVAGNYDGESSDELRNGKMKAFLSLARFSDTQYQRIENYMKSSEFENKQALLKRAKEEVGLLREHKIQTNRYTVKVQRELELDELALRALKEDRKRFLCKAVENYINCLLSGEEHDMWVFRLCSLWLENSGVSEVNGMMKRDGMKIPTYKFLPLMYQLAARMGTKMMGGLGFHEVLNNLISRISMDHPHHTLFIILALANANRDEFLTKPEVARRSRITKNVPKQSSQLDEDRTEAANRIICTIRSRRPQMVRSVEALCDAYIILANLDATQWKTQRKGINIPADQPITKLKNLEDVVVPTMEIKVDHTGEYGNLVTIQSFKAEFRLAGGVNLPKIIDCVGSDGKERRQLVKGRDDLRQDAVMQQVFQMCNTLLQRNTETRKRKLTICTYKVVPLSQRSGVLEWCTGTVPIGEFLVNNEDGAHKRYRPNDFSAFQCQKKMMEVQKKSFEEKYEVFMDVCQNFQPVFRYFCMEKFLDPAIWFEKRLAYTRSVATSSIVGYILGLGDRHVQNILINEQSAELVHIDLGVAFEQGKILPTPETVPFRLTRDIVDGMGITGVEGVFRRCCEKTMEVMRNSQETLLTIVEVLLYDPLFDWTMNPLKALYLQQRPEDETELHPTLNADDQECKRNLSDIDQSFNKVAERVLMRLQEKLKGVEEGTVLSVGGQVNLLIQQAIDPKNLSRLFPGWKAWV

[2] = biological target: T1, Serine-protein kinase ATM; test: Activation of ATM in human MCF7 cells assessed as increase in pKAP1 level at 30 uM in presence of 25 uM etoposide measured by western blot analysis; type: cell-based; conditions: filed as activator
SW480 [3] = test: Antiproliferative activity against human SW480 cells measured after 3 days by SRB assay; type: functional, cell-based; conditions: SW480, 72 h
SW480 [4] = test: Antiproliferative activity against human SW480 cells assessed as growth inhibition at 100 uM measured after 3 days by SRB assay; type: functional; conditions: SW480, 72 h, time 3 day, read-out: GI
MDCK = test: Cytotoxicity against dog MDCK cells at 100 uM; type: toxicity, cell-based, Canis lupus familiaris
[5] = biological target: T1, Serine-protein kinase ATM; test: Activation of ATM in human MCF7 cells assessed as increase in pATM level at 30 uM in presence of 25 uM etoposide measured by western blot analysis; type: cell-based; conditions: filed as activator
[6] = biological target: T1, Serine-protein kinase ATM; test: Activation of ATM in human MCF7 cells assessed as increase in pKAP-1 level at 0.001 to 100 uM measured by In-cell western assay; type: cell-based; conditions: filed as activator, dose 0.001-100 µM
[7] = biological target: T1, Serine-protein kinase ATM; test: Binding affinity towards ATM (unknown origin) assessed as increase in thermal stability of ATM at 30 uM measured by thermal shift assay
MCF7 [8] = test: Antiproliferative activity against human MCF7 cells assessed as growth inhibition at 100 uM measured after 2 days by SRB assay; type: functional; conditions: MCF7, 48 h, time 2 day, read-out: GI
MCF7 [9] = test: Antiproliferative activity against human MCF7 cells measured after 2 days by SRB assay; type: functional, cell-based; conditions: MCF7, 48 h
HEK293 = test: Cytotoxicity against human HEK293 cells at 100 uM; type: toxicity, cell-based; conditions: hek293, 100 µM
[10] = biological target: T1, Serine-protein kinase ATM; test: Inhibition of ATM in human MCF7 cells assessed as increase in pKAP1 level at 12.5 to 18 uM measured by western blot analysis; type: cell-based; conditions: dose 12.5-18 µM
[11] = biological target: T1, Serine-protein kinase ATM; test: Inhibition of ATM in human MCF7 cells assessed as increase in pATM level at 12.5 to 18 uM measured by western blot analysis; type: cell-based; conditions: dose 12.5-18 µM
SW480 [12] = test: Antiproliferative activity against human SW480 cells measured after 9 days by SRB assay; type: functional, cell-based; conditions: SW480, 216 h
[13] = Toxicity in BALB/c nude mouse xenografted with human SW480 cells assessed as effect on body weight at 30 mg/kg, iv; type: organism-based; conditions: in vivo
MCF7 [14] = test: Antiproliferative activity against human MCF7 cells measured after 6 days by SRB assay; type: functional, cell-based; conditions: MCF7, 144 h
[15] = biological target: T1, Serine-protein kinase ATM; test: Inhibition of ATM in human MCF7 cells assessed as decrease in pKAP-1 level measured by In-cell western assay; type: cell-based

Structure (SMILES) | IC50 (SW480 [3]) [µM] | IC50 (MCF7 [9]) [µM] | Activity (MDCK) | Activity (HEK293) | further results
CNC(=O)c1ccc(-c2cnc3cnc(-c4ccccc4)cn23)cc1 | – | – | – | – | IC50 [1]: 0.31 µM
COc1ccc(C(=O)NC(=S)Nc2cccc(-c3nc4ncccc4o3)c2)cc1Cl | > 100 | > 100 | Non-Toxic | Non-Toxic | Activity [2]: Active; inhibition of growth at 100 µM (SW480 [4]): < 20%; Activity [5]: Active; Activity [6]: Active; Activity ([7]; filed as activator): Active; inhibition of growth at 100 µM (MCF7 [8]): < 20%
CCN(CC)CCCC(C)Nc1ccnc2cc(Cl)ccc12 (stereo not drawn) [CHLOROQUINE] | 14.7 | 13.2 | – | – | –
O=c1cc(-c2cccc3c2Sc2ccccc2S3)oc(N2CCOCC2)c1 [KU-55933] | 26.5 | 24.8 | Non-Toxic | Non-Toxic | –

Second part, led by results:

IC50 (SW480 [3]) [µM] | IC50 (MCF7 [9]) [µM] | Structure (SMILES) | Activity (MDCK) | Activity (HEK293) | further results
4.9 | 6.3 | OCCNCc1c(OCc2ccc(Cl)cc2Cl)ccc2ccccc12 | Non-Toxic | Non-Toxic | inhibition [10]: Active; inhibition [11]: Active; IC50 (SW480 [12]): 5.5 µM; Activity [13]: Non-Toxic; IC50 (MCF7 [14]): 21.3 µM; Activity [7]: Active; IC50 [15]: 33.4 µM
13.3 | 11.9 | C[C@@H]1CN(CC(=O)Nc2ccc3c(c2)Cc2cccc(-c4cc(=O)cc(N5CCOCC5)o4)c2S3)C[C@H](C)O1 | Non-Toxic | Non-Toxic | IC50 (SW480 [12]): 3.3 µM; IC50 (MCF7 [14]): 2.8 µM
1.1 | 0.6 | CN(C)CCCOc1ccc(-c2ccc3ncc4c(c3c2)n(C2CCOCC2)c(=O)n4C)cn1 | Non-Toxic | Non-Toxic | –
